Measured values: US4172134A, “Benzo [B]thienopyridines, process for their preparation and therapeutic compositions containing same” (Parcor, priority 1977, dated 1979)

How the values were obtained:
[1] = tested on: A.D.P. induced blood-platelet aggregation; experiment: Determination of A.D.P. induced blood-platelet aggregation; assay type: in vivo; details: Wistar rats, 100 mg/kg orally, 3 hours after treatment, 10 μM A.D.P. solution, vs reference group, groups of 20 rats; for inhibition at 100 mg/kg: Rattus norvegicus, po, read-out: Percent inhibition of blood-platelet aggregation, A.D.P.
Experimental: (§1) 1. Blood-platelet aggregation inhibiting activity
(§2) Blood is taken from the jugular vein of Wistar rats. From this citrated blood and after centrifugation, is reconstituted a plasma containing 600,000±20,000 blood-platelets per mm3 which will be used in all aggregation determinations.
(§3) 0.4 ml of plasma is placed in a siliconized tube provided with a magnet bar which is also siliconized. The tube is introduced into an aggregometer connected with an apparatus which records optical density variations. When light transmission has attained a stable value, 0.5 ml of a solution containing 10 μM A.D.P. (Adenosine-Di-Phosphate) are introduced into the tube.
(§4) Blood-platelet aggregation then produces an increase of light transmission followed by a decrease subsequent to the deaggregation phase.
(§5) The maximal optical density variation thus determined characterizes the intensity of the aggregation.
(§6) Different groups of 20 rats each are used, each group being orally administered a test derivative at a dosage of 100 mg/kg.

[2] = tested on: collagen-induced blood-platelet aggregation; experiment: Determination of collagen-induced blood-platelet aggregation; assay type: in vivo; details: Wistar rats, 100 mg/kg orally, 3 hours after treatment, collagen solution (bovine tendon extract), vs reference group, groups of 20 rats; for inhibition at 100 mg/kg: Rattus norvegicus, po, read-out: Percent inhibition of blood-platelet aggregation, Collagen
Experimental: as §1, §2, §3, §4, §5
The A.D.P. solution is substituted with a collagen solution (bovine tendon extract).
as §6

Compound: COc1cc(CN2Cc3c(sc4ccc(Cl)cc34)C(c3ccccc3)C2C)cc(OC)c1OC (centres unmarked) [Example 10, 8-Chloro-2-(3,4,5-trimethoxy-benzyl)-3-methyl-4-phenyl-1,2,3,4-tetrahydro-benzo(b)thieno[3,2-c]pyridine]
- inhibition at 100 mg/kg [1]: 60.2%
- inhibition at 100 mg/kg [2]: 94.5%

Compound: c1ccc(C2CNCc3c2sc2ccccc32)cc1 (centres unmarked) [Example 4, 4-Phenyl-1,2,3,4-tetrahydro-benzo(b)thieno[3,2-c]pyridine]
- inhibition at 100 mg/kg [1]: 61.5%
- inhibition at 100 mg/kg [2]: 90.8%

Compound: CC1C(c2ccccc2)c2sc3ccccc3c2CN1CCc1ccccc1 (centres unmarked) [Example 16, 3-Methyl-2-phenethyl-4-phenyl-1,2,3,4-tetrahydro-benzo(b)-thieno[3,2-c]pyridine]
- inhibition at 100 mg/kg [1]: 62.7%
- inhibition at 100 mg/kg [2]: 93.2%

Compound: CC1C(c2ccccc2)c2sc3ccc(Cl)cc3c2CN1Cc1ccccc1C(=O)O (centres unmarked) [Example 14, 2-o.Carboxybenzyl-8-chloro-3-methyl-4-phenyl-1,2,3,4-tetrahydro-benzo(b)thieno[3,2-c]pyridine]
- inhibition at 100 mg/kg [1]: 60.6%
- inhibition at 100 mg/kg [2]: 93.8%

Compound: COc1cccc(CN2Cc3c(sc4ccccc34)C(c3ccccc3)C2C)c1 (centres unmarked) [Example 9, 3-Methyl-P2-m.methoxybenzyl-4-phenyl-1,2,3,4-tetrahydro-benzo(b)thieno[3,2-c]pyridine]
- inhibition at 100 mg/kg [1]: 61.8%
- inhibition at 100 mg/kg [2]: 91.2%

Compound: CC1C(c2ccccc2)c2sc3ccc(Cl)cc3c2CN1Cc1ccccc1Cl (centres unmarked) [Example 6, 8-Chloro-2-o-chlorobenzyl-3-methyl-4-phenyl-1,2,3,4-tetrahydro-benzo(b)thieno[3,2-c]pyridine]
- inhibition at 100 mg/kg [1]: 61.2%
- inhibition at 100 mg/kg [2]: 94.4%

Compound: CC1NCc2c(sc3ccccc23)C1c1ccccc1 (centres unmarked) [Example 2, 3-Methyl-4-phenyl-1,2,3,4-tetrahydro-benzo(b)-thieno[3,2-c]-pyridine]
- inhibition at 100 mg/kg [1]: 61.7%
- inhibition at 100 mg/kg [2]: 93.8%

Compound: CC1NCc2c(sc3ccc(Cl)cc23)C1c1ccccc1 (centres unmarked) [Example 1, 8-Chloro-3-methyl-4-phenyl-1,2,3,4-tetrahydro-benzo(b)-thieno[3,2-c]pyridine]
- inhibition at 100 mg/kg [1]: 62.1%
- inhibition at 100 mg/kg [2]: 91.4%

Compound: COC(=O)c1ccccc1CN1Cc2c(sc3ccc(Cl)cc23)C(c2ccccc2)C1C (centres unmarked) [Example 13, 8-Chloro-3-methyl-2-o.methoxycarbonylbenzyl-4-phenyl-1,2,3,4-tetrahydro-benzo(b)thieno[3,2-c]pyridine]
- inhibition at 100 mg/kg [1]: 62.1%
- inhibition at 100 mg/kg [2]: 95%

Compound: CC1C(c2ccccc2)c2sc3ccc(Cl)cc3c2CN1Cc1ccccc1 (centres unmarked) [Example 7, 2-Benzyl-8-chloro-3-methyl-4-phenyl-1,2,3,4-tetrahydro-benzo(b)thieno[3,2-c]pyridine]
- inhibition at 100 mg/kg [1]: 63%
- inhibition at 100 mg/kg [2]: 95.1%

Compound: CC1C(c2ccccc2)c2sc3ccc(Cl)cc3c2CN1Cc1cccnc1 (centres unmarked) [Example 17, 8-Chloro-3-methyl-4-phenyl-2-(3-pyridyl)methyl-1,2,3,4-tetrahydro-benzo(b)thieno[3,2-c]pyridine]
- inhibition at 100 mg/kg [1]: 63.5%
- inhibition at 100 mg/kg [2]: 90.4%

Compound: Clc1ccc2sc3c(c2c1)CNCC3c1ccccc1 (centres unmarked) [Example 3, 8-Chloro-1-phenyl-1,2,3,4-tetrahydro-benzo(b)thieno[3,2-c]-pyridine]
- inhibition at 100 mg/kg [1]: 62.9%
- inhibition at 100 mg/kg [2]: 90.5%

Compound: CC1C(c2ccccc2)c2sc3ccccc3c2CN1Cc1ccccn1 (centres unmarked) [Example 18, 3-Methyl-4-phenyl-2-(2-pyridyl)methyl-1,2,3,4-tetrahydro-benzo(b)thieno[3,2-c]pyridine]
- inhibition at 100 mg/kg [1]: 61.3%
- inhibition at 100 mg/kg [2]: 91.7%

Compound: Cc1ccc(N2Cc3c(sc4ccccc34)C(c3ccccc3)C2)cc1 (centres unmarked) [Example 8, 4-Phenyl-2-p.tolyl-1,2,3,4-tetrahydro-benzo(b)-thieno[3,2-c]-pyridine]
- Percent inhibition of blood-platelet aggregation, A.D.P. [1]: 61.4%
- Percent inhibition of blood-platelet aggregation, Collagen [2]: 90.6%

Compound: O=[N+]([O-])c1ccccc1CN1Cc2c(sc3ccc(Cl)cc23)C(c2ccccc2)C1 (centres unmarked) [Example 11, 8-Chloro-2-o.nitrobenzyl-4-phenyl-1,2,3,4-tetrahydro-benzo(b)thieno[3,2-c]pyridine]
- inhibition at 100 mg/kg [1]: 62.5%
- inhibition at 100 mg/kg [2]: 92.7%

Compound: CCCCN1Cc2c(sc3ccc(Cl)cc23)C(c2ccccc2)C1C (centres unmarked) [Example 15, 2-Butyl-8-chloro-3-methyl-4-phenyl-1,2,3,4-tetrahydro-benzo(b)thieno[3,2-c]pyridine]
- inhibition at 100 mg/kg [1]: 60.1%
- inhibition at 100 mg/kg [2]: 92.6%

Compound: CC1C(c2ccccc2)c2sc3ccc(Cl)cc3c2CN1C (centres unmarked) [Example 5, 8-Chloro-2,3-dimethyl-4-phenyl-1,2,3,4-tetrahydro-benzo(b)-thieno[3,2-c]pyridine]
- inhibition at 100 mg/kg [1]: 60.8%
- inhibition at 100 mg/kg [2]: 91.2%

Compound: N#Cc1ccccc1CN1Cc2c(sc3ccccc23)C(c2ccccc2)C1 (centres unmarked) [Example 12, 2-o.Cyanobenzyl-4-phenyl-1,2,3,4-tetrahydro-benzo(b)thieno-[3,2-c]pyridine]
- inhibition at 100 mg/kg [1]: 61.3%
- inhibition at 100 mg/kg [2]: 92.2%

Compound: CC1C(c2ccccc2)c2sc3ccc(Cl)cc3c2CN1Cc1ccncc1 (centres unmarked) [Example 19, 8-Chloro-3-methyl-4-phenyl-2-(4-pyridyl)methyl-1,2,3,4,-tetrahydrobenzo(b)thieno[3,2-c]pyridine]
- inhibition at 100 mg/kg [1]: 62.4%
- inhibition at 100 mg/kg [2]: 91.9%
